Our source for the Bmax (fM (mg of protein)-1) values is ChEMBL document CHEMBL1126578, “Synthesis and optical resolution of (R)- and (S)-trans-7-Hydroxy-2-[N-propyl-N-(3'-iodo-2'-propenyl)amino]tetralin: a new D3 dopamine receptor ligand” (J Med Chem, 1993).

The target of this experiment is D(3) dopamine receptor (Rattus norvegicus) (UniProt P19020). The experiment can be described thus: Saturable binding was tested dopamine receptor D3 in rat striatal membrane homogenate. Type of experiment: cell membranes. As to conditions: Striatum.
D(3) dopamine receptor (Rattus norvegicus), sequence (P19020 whole entry): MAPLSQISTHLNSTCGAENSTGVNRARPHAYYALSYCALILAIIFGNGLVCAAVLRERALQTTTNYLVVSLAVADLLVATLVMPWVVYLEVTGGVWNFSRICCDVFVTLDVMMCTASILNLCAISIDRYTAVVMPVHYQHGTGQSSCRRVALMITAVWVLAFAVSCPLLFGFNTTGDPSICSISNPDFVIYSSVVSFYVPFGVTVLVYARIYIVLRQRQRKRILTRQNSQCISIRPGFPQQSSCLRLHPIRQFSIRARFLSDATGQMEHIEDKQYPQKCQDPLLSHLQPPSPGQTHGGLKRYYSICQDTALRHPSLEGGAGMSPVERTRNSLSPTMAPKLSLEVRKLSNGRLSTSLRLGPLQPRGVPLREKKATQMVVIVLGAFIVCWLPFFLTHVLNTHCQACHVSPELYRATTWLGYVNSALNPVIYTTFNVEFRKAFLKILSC

Turning to `CCCN(C/C=C/I)C1CCc2ccc(O)cc2C1` (stereo unspecified), the Bmax (fM (mg of protein)-1) turned out to be 240.
